Data on two compounds can be found in patent publication US11033577B2, “Polymer conjugate of hexa-coordinated platinum complex” (priority 2015, dated 2021).

Data set [1] concerns Human stomach cancer 4-1ST. The experiment in a line: Antitumor Test 3, human stomach cancer 4-1ST transplanted mouse. The class given is in vivo, BALB/cA-nu/nu mouse. To be noted: caudal vein. From the text: Human stomach cancer 4-1ST was subcultured subcutaneously in a BALB/cA-nu/nu mouse (hereinafter, nude mouse). Human stomach cancer 4-1ST was obtained from the Central Institute for Experimental Animals.
(§1) Human stomach cancer 4-1ST was collected subcutaneously from a nude mouse and was cut into blocks each measuring about 3 mm on each side. The tumor blocks thus obtained were transplanted subcutaneously on the dorsal side of nude mice using a trocar. On the 20th day after transplantation, where the average tumor volume had reached about 100 to 200 mm^3, various drugs were administered through the caudal vein. The use and dose (in terms of drug) of the various administered drugs are as follows. In regard to the Example 7 compound, the compound was dissolved in a 5% glucose injectable solution, and the solution was administered once at a dose of 15 mg/kg or 7.5 mg/kg. In regard to the Example 16 compound, the compound was dissolved in a 5% glucose injectable solution, and the solution was administered once at a dose of 30 mg/kg or 15 mg/kg. As a control drug, l-OHP was administered once at a dose of 18 mg/kg or 9 mg/kg, and cisplatin was administered once at a dose of 10 mg/kg. Regarding the amounts of administration of l-OHP and cisplatin and the high amounts of administration of the various Example compounds, the maximum tolerable doses (MTD doses) were employed for all of the compounds. After the administration, the major axis (L) and the minor axis (W) of the tumor were measured over time using calipers, and the tumor volume (L×W×W×0.5) was calculated. The test was performed by employing four animals per group for all of a non-administered group as well as various drug-administered groups. During the period from the initiation of administration to the 21st day after administration, the relative tumor volume (T/C (%)) of each drug-administered group based on the relative tumor volume of a non-drug-administered group as 100 was calculated by the following formula as an index for the antitumor effect. T/C(%)=Relative tumor volume of administered group/relative tumor volume of non-administered group×100 Formula: […]

Data set [2] in a line: Body weight of mice in Antitumor Test 2. The class given is in vivo. The settings on record: 18 mg/kg once, caudal vein. The protocol:
as §1, with “the 17th” for “the 20th”, “Example 11” for “Example 7”, “Example 12” for “Example 16”, “18” for “18 mg/kg or 9”
After the administration, the body weights of the mice were measured over time. During the period from the initiation of administration to the 21st day after administration, the changes in the relative body weight based on the body weight on the day of initiation of administration as 1 are presented in Table 5.

Data set [3] can be described thus: Body weight of mice in Antitumor Test 3. The class given is in vivo. To be noted: caudal vein. The protocol: as §1
After the administration, the body weights of the mice were measured over time. During the period from the initiation of administration to the 21st day after administration, the changes in the relative body weight based on the body weight on the day of initiation of administration as 1 are presented in Table 7.

For `N.N.[Cl][Pt][Cl]` [Cisplatin, cisplatin], the “T/C (%) in various numbers of days after administration” value (“T/C (%) in various numbers of days” for short) is reported as 100% in data set [1] (10 mg/kg once, day 0); 47% in data set [1] (10 mg/kg once, day 4); 22% in data set [1] (10 mg/kg once, day 7); 17% in data set [1] (10 mg/kg once, day 11); 16% in data set [1] (10 mg/kg once, day 14); 20% in data set [1] (10 mg/kg once, day 18). Moreover, the “T/C (%) in various numbers of days” value in data set [1] (10 mg/kg once, day 21) was 19%.
`O=C1[O][Pt]2([NH][C@@H]3CCCC[C@H]3[NH]2)[O]C1=O` [l-OHP, oxaliplatin]: the “Relative body weight in numbers of days after administration” value (“Relative body weight in numbers of days” for short) worked out at 1.00 in data set [2] (day 0); 0.78 in data set [2] (day 4); 0.83 in data set [2] (day 7); 0.93 in data set [2] (day 11); 1.03 in data set [2] (day 14); 1.09 in data set [2] (day 18). Besides, the “Relative body weight in numbers of days” value is 1.05 in data set [2] (day 21); 1.00 in data set [3] (9 mg/kg once, day 0); 0.96 in data set [3] (9 mg/kg once, day 4); 1.00 in data set [3] (9 mg/kg once, day 7); 1.01 in data set [3] (9 mg/kg once, day 11); 1.02 in data set [3] (9 mg/kg once, day 14). Further, the “Relative body weight in numbers of days” value in data set [3] (9 mg/kg once, day 18) came out at 1.02; in data set [3] (9 mg/kg once, day 21), 1.02; in data set [3] (18 mg/kg once, day 0), 1.00; in data set [3] (18 mg/kg once, day 4) it was 0.85; in data set [3] (18 mg/kg once, day 7) it was 0.89; in data set [3] (18 mg/kg once, day 11) it was 0.98. Moreover, the “Relative body weight in numbers of days” value in data set [3] (18 mg/kg once, day 14) was 1.01; in data set [3] (18 mg/kg once, day 18) it was 1.02; in data set [3] (18 mg/kg once, day 21) it was 1.04. Further, the “T/C (%) in various numbers of days” value was found to be 100% in data set [1] (9 mg/kg once, day 0); 81% in data set [1] (9 mg/kg once, day 4); 74% in data set [1] (9 mg/kg once, day 7); 75% in data set [1] (9 mg/kg once, day 11); 79% in data set [1] (9 mg/kg once, day 14); 77% in data set [1] (9 mg/kg once, day 18). The “T/C (%) in various numbers of days” value in data set [1] (9 mg/kg once, day 21) is reported as 87%; in data set [1] (18 mg/kg once, day 0), 100%; in data set [1] (18 mg/kg once, day 4), 60%; in data set [1] (18 mg/kg once, day 7) it was 37%; in data set [1] (18 mg/kg once, day 11), 36%; in data set [1] (18 mg/kg once, day 14), 47%. For the same compound, the “T/C (%) in various numbers of days” value in data set [1] (18 mg/kg once, day 18) is reported as 50%; in data set [1] (18 mg/kg once, day 21) it was 52%.
